Each structure is given as a SMILES string.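 Interpolation was linear, between the two tested concentrations surrounding the appropriate level; five concentrations were tested over 48 hours in 96-well plates. The concentration for full growth arrest is given as TGI.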 Some results are limits rather than exact numbers.

In PubChem BioAssay (NCI) one finds TGI data, which are given here for eight molecules.

What all share (test): inhibition of tumour cell growth, NCI panel, 48 h
For experiment [1], the system named is ACHN renal.
Experiment [2] relates to UACC-62 melanoma.
Experiment [3] deals with OVCAR-5 ovarian.
Experiment [4] concerns CAKI-1 renal.
Experiment [5] deals with M14 melanoma.
For experiment [6], the system named is OVCAR-3 ovarian.
For experiment [7], the system named is HOP-62 NSCLC.
Experiment [8] has as its system EKVX NSCLC.
Experiment [9] has as its system UACC-257 melanoma.
The subject of experiment [10] is SK-MEL-28 melanoma.
The test system of experiment [11] is MALME-3M melanoma.
For experiment [12], the system named is SNB-75 CNS.
Experiment [13] relates to RXF 393 renal.
Experiment [14] has as its system SF-295 CNS.
The test system of experiment [15] is U251 CNS.
The subject of experiment [16] is HCT-116 colon.
Experiment [17] relates to SF-268 CNS.
The test system of experiment [18] is SNB-19 CNS.
Experiment [19] relates to COLO 205 colon.

For `COC(=O)C(/C(=N/N)C(=O)Nc1ccc(C)c(C)c1)c1nc2ccc(Cl)cc2[nH]c1=O` (stereo unspecified), the TGI in experiment [1], in experiment [2], in [3], in [4], in experiment [5] and in [6] was greater than 100 µM in each case. Also, the TGI in experiment [7], in [8], in experiment [9], in experiment [10], in experiment [11] and in experiment [12] was greater than 100 µM each time. Also, the TGI in experiment [13], in experiment [14], in experiment [15], in [16] and in experiment [17] was greater than 100 µM in each case.
As for `O=C(O)CN1CCNCCN(CC(=O)O)CCNCC1`, the TGI in experiment [1], in experiment [2], in [3], in experiment [18], in experiment [4] and in experiment [5] was greater than 100 µM throughout. The TGI in [6] is greater than 100 µM; in [7], greater than 100 µM; in [8], greater than 100 µM; in [9], greater than 100 µM; in experiment [19], greater than 36.4 µM; in [11] it was greater than 100 µM. The TGI in experiment [12] was 98.9 µM; in experiment [13] it was greater than 100 µM; in [14], greater than 100 µM; in [15], greater than 100 µM; in experiment [16] it was greater than 100 µM; in experiment [17] it was greater than 100 µM.
For `COC(=O)c1cc(C)n2c1CS[C@@H]2c1ccccc1`, the TGI is greater than 100 µM in experiment [1]; greater than 100 µM in experiment [3]; greater than 100 µM in experiment [18]; greater than 100 µM in experiment [4]; 73.4 µM in [5]; greater than 100 µM in [6]. For the same molecule, the TGI in experiment [7] was greater than 100 µM; in experiment [8], 93.2 µM; in experiment [9], greater than 100 µM; in experiment [19], 80 µM; in [10] it was greater than 100 µM; in experiment [11], greater than 100 µM. In addition, the TGI was 81.3 µM in experiment [12]; 55.5 µM in [13]; greater than 100 µM in [14]; greater than 100 µM in experiment [15]; greater than 100 µM in experiment [16]; greater than 100 µM in [17].
In the case of `CC1CC(=O)N2CCCNC2=C1C#N` (stereo unspecified), the TGI in experiment [2], in [18], in experiment [4], in experiment [5], in experiment [6] and in [7] was greater than 100 µM throughout. Also, the TGI in [8], in [9], in experiment [19], in experiment [10], in experiment [11] and in experiment [12] was greater than 100 µM throughout. The TGI in experiment [13], in experiment [14], in experiment [15], in experiment [16] and in experiment [17] was greater than 100 µM throughout.
For the molecule `CC1=Nc2nc3ccccc3n2C(C)(C)C1`, the TGI in experiment [1], in experiment [2], in experiment [3], in [18], in experiment [4] and in experiment [5] was greater than 100 µM throughout. Further, the TGI in [6], in experiment [7], in experiment [8], in experiment [9], in experiment [19] and in [11] was greater than 100 µM in each case. In addition, the TGI in experiment [12], in experiment [13], in experiment [14], in [15], in experiment [16] and in [17] was greater than 100 µM throughout.
`O=C(CC(=O)N(C(=O)c1ccccc1)c1ccc(Cl)cc1)N/N=C\c1ccccc1O`: the TGI in experiment [1], in experiment [3], in experiment [18], in experiment [4], in experiment [5] and in experiment [6] was greater than 100 µM in each case. Besides, the TGI in experiment [7] was 89.2 µM; in experiment [8] it was greater than 100 µM; in [9] it was greater than 100 µM; in experiment [19] it was greater than 100 µM; in experiment [10], greater than 100 µM; in experiment [11], greater than 100 µM. In addition, the TGI in experiment [12] is 67.4 µM; in experiment [13], greater than 100 µM; in experiment [14] it was 80.9 µM; in [15] it was greater than 100 µM; in experiment [16], greater than 100 µM; in experiment [17], greater than 100 µM.
On to `CC(=O)OCc1cccc(O)c1C(=O)CCC=C(C)C`, for which the TGI in experiment [1], in experiment [2], in experiment [3], in experiment [18], in experiment [4] and in [5] was greater than 100 µM in each case. The TGI in experiment [6], in [7], in experiment [8], in experiment [9], in experiment [19] and in experiment [10] was greater than 100 µM throughout. For the same molecule, the TGI in [11], in experiment [13], in experiment [14], in experiment [15], in experiment [16] and in experiment [17] was greater than 100 µM in each case.
For `NC(=O)Cc1ncn(-c2ccccc2)n1`, the TGI in experiment [1], in [2], in experiment [3], in experiment [18], in [4] and in [5] was greater than 100 µM each time. Besides, the TGI in experiment [6], in experiment [7], in [8], in experiment [9], in [19] and in experiment [11] was greater than 100 µM throughout. Further, the TGI in experiment [12], in [13], in experiment [14], in [16] and in experiment [17] was greater than 100 µM throughout.
